According to US20020119967A1, “Pharmaceutical composition for preventing or treating a disease associated with an excess of IL-12-production” (priority 2000, published 2002):
Like-named read-outs stand apart in the source and are kept apart here.

Legend:
immature DC [1] = experiment: LPS plus IFN-γ-induced cytokine production by immature DC; type: cell-based, human; conditions: immature DC stimulated with LPS and IFN-γ, 24 h supernatants; for IL-12p70 production / TNF-α production: vs DMSO-treated DC
Description: FIG. 1 illustrates the inhibitory effect of PDE 4 inhibitors on LPS plus IFN-γ-induced cytokine production by immature DC. DC (2×10^4 cells/well) were stimulated with LPS and IFN-γ combined with the indicated concentrations of PDE4 inhibitors (Ariflo or Rolipram). Results are expressed as the mean cytokine production in ng/ml of duplicate cultures (24h supernatants). A: IL-12p70; B: TNF-α; C: IL-6. Cytokine production is expressed as ng/ml.
Venous blood from healthy donors is collected by venipuncture in sodium-heparin containing tubes (VT100H; Venoject, Terumo Europe, Leuven, Belgium). Peripheral blood mononuclear cells (PBMC) are isolated by density centrifugation on Lymphoprep (Nycomed, Torshov, Norway). Subsequently, PBMC are centrifuged on a Percoll (Pharmacia, Uppsala, Sweden) gradient consisting of three density layers (1.076, 1.059 and 1.045 g/ml). The light density fraction floating on the middle layer, which contained predominantly monocytes, is seeded in 24-well culture plates (Costar, Cambridge, Mass.) at a density of 5×10^5 cells/well. After 30 min of incubation at 37° C., nonadherent cells are removed; adherent cells are cultured in Iscove's modified Dulbecco's medium (Life Technologies, Paisley, U.K.) containing gentamycin (86 μg/ml; Duchefa, Haarlem, The Netherlands) and 1% FCS (Hyclone, Logan, Utah.) and supplemented with GM-CSF (500 U/ml) and IL-4 (250 U/ml) to obtain DC. At day 3, the media, including the supplements, are refreshed. At day 6, immature CD1a^+CD14^− DC are obtained.
Measurements of IL-12p70 levels in culture supernatants were performed by a specific solid-phase sandwich ELISA OptEI™ human IL-12P70 (Pharmingen San Diego, Calif.). Measurements of IL-6 and TNF-α were performed by ELISA using pairs of specific mAbs and recombinant cytokine standards obtained from BioSource International (Camarillo, Calif.). The limits of detection of these ELISA are as follows: IL-6, 20 pg/ml; IL-12p70, 3 pg/ml; and TNF-α, 20 pg/ml.
In contrast, the production of IL-6 by the immature DC was not affected by any of the inhibitors.

immature DC [2] = experiment: CD40-induced IL-12 production by immature DC stimulated with J558-CD40L cells; type: cell-based, human; conditions: 10 μM inhibitor, J558-CD40L stimulation, 24 h supernatant
Description: FIG. 2 illustrates the inhibitory effect of PDE4 inhibitors on CD40-induced IL12 production by immature DC. DC (2×10^4 cells/well) were stimulated with J558-CD40L cells in the presence of 10 μM of the indicated PDE4 inhibitors (Ariflo, Rolipram, Diazepino-indole or Pirazolo [4,3-e] diazepine). Results are expressed as the cytokine production in pg/ml of 24 h supernatant of cell cultures. The data shown are from one representative experiment out of three giving similar results. Venous blood from healthy donors is collected by venipuncture in sodium-heparin containing tubes ([…], Terumo Europe, Leuven, Belgium). Peripheral blood mononuclear cells (PBMC) are isolated by density centrifugation on Lymphoprep (Nycomed, Torshov, Norway). Subsequently, PBMC are centrifuged on a Percoll (Pharmacia, Uppsala, Sweden) gradient consisting of three density layers (1.076, 1.059 and 1.045 g/ml). The light density fraction floating on the middle layer, which contained predominantly monocytes, is seeded in 24-well culture plates (Costar, Cambridge, Mass.) at a density of 5×10^5 cells/well. […]

dendritic cells [3] = experiment: Expression of cell surface molecules (CD1a, CD86, ICAM-1, CD83) on DC matured in presence of PDE4 inhibitors, flow cytometry; type: cell-based, human
From the text: (§1) Dendritic cells were matured for 2 days with LPS in the presence or absence of the PDE4 inhibitors Ariflo or Rolipram and analysed for the expression of cell surface molecules by flow cytometry. In the left corner of each figure the mean fluorescence intensity (Mn).
as §1, with “with the maturation factors TNF-α plus IL-1β (referred to as MF)” for “with LPS”, “Ariflo and” for “Ariflo or”
At day 6, the maturation of CD1a^+ DC was induced by a 2-day exposure to either LPS (250 ng/ml; Difco, Detroit, Mich.) or a combination of the cytokines rhIL-1β (10 ng/ml), and TNF-α (25 ng/ml) both obtained from Pharma Biotechnologie, Hannover, Germany. Maturation was induced in the absence or presence of PDE4 inhibitors (10 μM, unless stated otherwise) or PGE2 (10^−6 M; Sigma, St. Louis,Mass.). Where indicated, DC were kept in non-maturing conditions during 2 days.
The mouse mAbs against the following human molecules were used: CD1a (OKT6; Ortho Diagnostic System, Beerse, Belgium), ICAM-1, CD86 (Pharmingen, San Diego, Calif.), CD83 (HB15a, IgG2b; Immunotech, Marseille, France), followed by FITC-conjugated goat anti-mouse mAb (Jackson Immunoresearch Laboratories, West Grove, Pa.).
The maturation process of DC is associated with the appearance of CD83 and upregulation of co-stimulatory molecules like CD86. The study whether the presence of PDE4 inhibitors during DC maturation could affect the cell surface expression of the DC-associated marker CD1a, the co-stimulatory molecules CD86 and ICAM-1, and the DC maturation marker CD83, therefore the study of the expression of these markers after treatment has been performed.

Naive Th cells (ThN) = experiment: Naive T cell differentiation (Th1/Th2) after co-culture with DC matured in presence of PDE4 inhibitors, intracellular IFN-γ/IL-4 staining; type: cell-based, human; conditions: DC matured with MF plus 10 μM inhibitor
dendritic cells [4] = conditions: cited from earlier work
[5] = DC matured 2 days with TNF-α plus IL-1β (MF)

Molecule | IL-6 production (immature DC [1]) | IL-12p70 production (immature DC [1]) | TNF-α production (immature DC [1]) | IL-12 production (immature DC [2]) | expression of cell surface molecules (phenotype of mature DC) (dendritic cells [3]; DC matured 2 days with LPS) | expression of cell surface molecules (phenotype of mature DC) (dendritic cells [3]; [5]) | IFN-γ (%) positive cells (Naive Th cells (ThN); Experiment 1) | IL-4 positive cells (%) (Naive Th cells (ThN); Experiment 1) | IFN-γ (%) positive cells (Naive Th cells (ThN); Experiment 2) | IL-4 (%) positive cells (Naive Th cells (ThN); Experiment 2) | IFN-g (%) positive cells (Naive Th cells (ThN); Experiment 3) | IL-4 (%) positive cells (Naive Th cells (ThN); Experiment 3) | IL-12 production by dendritic cells (dendritic cells [4]; shown in the art) | IL-12 production by dendritic cells (dendritic cells [4])
COc1ccc([C@]2(C#N)CC[C@@H](C(=O)O)CC2)cc1OC1CCCC1 [Ariflo] | not affected | reduced ability to produce | reduced ability to produce | able to inhibit IL-12 production | absence of phenotypic effect | absence of phenotypic effect | 4.7% | 15.1% | 29.6% | 2.0% | 24.0% | 6.2% | – | –
COc1ccc(C2CNC(=O)C2)cc1OC1CCCC1 (stereo not drawn) [Rolipram] | not affected | reduced ability to produce | reduced ability to produce | able to inhibit IL-12 production | absence of phenotypic effect | absence of phenotypic effect | 7.2% | 13.5% | 35.4% | 1.1% | 24.5% | 5.7% | – | –
CCCCC[C@H](O)/C=C/[C@H]1[C@H](O)CC(=O)[C@@H]1C/C=C\CCCC(=O)O [prostaglandin E2] | – | – | – | – | – | – | – | – | – | – | – | – | inhibit IL-12 production | –
CC(C)(C)NCC(O)c1ccc(O)c(CO)c1 (stereo not drawn) [salbutamol] | – | – | – | – | – | – | – | – | – | – | – | – | inhibit IL-12 production | –
cholera toxin | – | – | – | – | – | – | – | – | – | – | – | – | – | inhibit IL-12 production
